The source of these data is patent publication US20240391954A1, “MC4R AGONIST PEPTIDES” (The Regents of the University of Michigan, priority 2021, published 2024).

Each structure is given as a SMILES string. Like-named read-outs stand apart in the source and are kept apart here. Positions of bridges follow the written chain, without caps; N, C: chain ends. Non-standard residues stand in square brackets, D forms with d. Residues, ends and D or L forms follow the SMILES beside them. dPhe(4-Br) = N[C@H](Cc1ccc(Br)cc1)C(=O)O; 2Nal = N[C@@H](Cc1ccc2ccccc2c1)C(=O)O; NMeR = CN[C@@H](CCCNC(=N)N)C(=O)O; Nle = CCCC[C@H](N)C(=O)O

One assay has as its target T1, human MC3R (Homo sapiens, UniProt P41968).
T1 construct: expressed in transfected cells; host or cells: HEK-293 cells stably expressing the GScAMP22F split-luciferase cAMP sensor (parent reporter line from Promega); MC3R clone generated in-house, G418 selection
The assay can be described thus: split-luciferase cAMP sensor assay, agonist mode (measurement window 1), hMC3R. It counts as cell-based. To be noted: for Emax / EC50: agonist mode; for Emax: read-out: MC3R cAMP % max activation; for EC50: read-out: MC3R cAMP EC50. Here is the method: (§1) The stable cell lines were grown and maintained in selection media consisting of Dulbecco's modified Eagle media (DMEM) with 4.5 g/l D-glucose, and 4 mM L-glutamine (Thermo Fisher Scientific, Waltham, MA), supplemented with 10% fetal bovine serum, 100 units/ml penicillin, 100 μg/ml streptomycin, 2.5 μg/ml amphotericin B, 200 μg/ml hygromycin B (for positive selection of the GScAMP22f luciferase reporter), and Geneticin™ (G418) 700 μg/ml (for MC3R or MC4R selection). Actual serum concentration during the assay is estimated to be about 1%. Cell line identity is routinely verified by qPCR and MC3R-and MC4R-specific oligonucleotides.
(§2) The assay for the determination of the cAMP response in live cells was described previously. […] Cells were seeded at a density of 20,000 cells per well using 384-well poly-D lysine-coated, clear bottom, and black-wall assay plates (Corning Inc. Corning, NJ). Cells were allowed to attach to the plates for 18 to 24 h after which growth media was removed and 20 μl of 4% D-luciferin (Promega) in CO2 independent, serum-free medium (Thermo Fisher Scientific) was added to each well. […] Intracellular cAMP levels were measured using an FDSS 7000EX Functional Drug Screening System (Hamamatsu Photonics, Hamamatsu, Japan) in the Center for Chemical Genomics at the Life Sciences Institute. This instrument allowed the in-line addition of test-peptides and receptor agonists while simultaneously acquiring the luminescence signal from live cells. […] A submaximal forskolin (20 μM) concentration was also included to serve as a normalization reference to account for cell number variations and differences in assay transducer efficiency between cell lines.
(§3) With this set up it was possible to evaluate the direct effect of the test-peptides on the MC3R and MC4R cell lines during measurement window 1, while the antagonist profile in the presence of EC90 α-MSH was determined on measurement window 2. […] EC50 or IC50 potency values were determined by non-linear regression by fitting the data to a sigmoid four-parameter variable slope model using the GraphPad Prism version 8.4 software package (San Diego CA).

For a further assay, the target named is T2, human MC4R (Homo sapiens, UniProt P32245).
T2 construct: host or cells: HEK-293 cells stably expressing the GScAMP22F split-luciferase cAMP sensor and hMC4R, G418 selection
Kind of assay: split-luciferase cAMP sensor assay, agonist mode (measurement window 1), hMC4R. Conditions: for Emax / EC50: agonist mode; for Emax: read-out: MC4R cAMP % max activation; for EC50: read-out: MC4R cAMP EC50. It counts as cell-based. On the procedure:
as §1, §2, §3

T1 sequence (P41968 whole entry): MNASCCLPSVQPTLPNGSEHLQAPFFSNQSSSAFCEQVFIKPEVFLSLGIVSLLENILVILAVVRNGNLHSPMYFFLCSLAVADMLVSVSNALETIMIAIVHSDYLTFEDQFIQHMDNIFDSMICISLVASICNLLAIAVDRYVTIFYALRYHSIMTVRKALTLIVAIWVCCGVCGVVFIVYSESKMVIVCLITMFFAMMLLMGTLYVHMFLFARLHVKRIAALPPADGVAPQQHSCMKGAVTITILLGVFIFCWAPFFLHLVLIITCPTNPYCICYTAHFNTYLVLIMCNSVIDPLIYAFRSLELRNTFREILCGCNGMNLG
T2 sequence (P32245 whole entry): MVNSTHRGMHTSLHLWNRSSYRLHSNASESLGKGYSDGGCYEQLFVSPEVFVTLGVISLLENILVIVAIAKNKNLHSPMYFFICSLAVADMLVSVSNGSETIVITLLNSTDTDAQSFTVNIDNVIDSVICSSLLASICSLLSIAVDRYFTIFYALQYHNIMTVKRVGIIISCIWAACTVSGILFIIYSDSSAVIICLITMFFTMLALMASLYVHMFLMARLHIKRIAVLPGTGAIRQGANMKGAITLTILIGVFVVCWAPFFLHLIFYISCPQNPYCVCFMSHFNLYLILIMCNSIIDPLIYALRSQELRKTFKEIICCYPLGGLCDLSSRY

For the compound `CC(=O)N[C@@H](CCCNC(=N)N)C(=O)N[C@H]1CSSC[C@@H](C(=O)N[C@@H](CCCNC(=N)N)C(=O)N[C@@H](Cc2ccccc2)C(N)=O)NC(=O)[C@@H](Cc2c[nH]c3ccccc23)NC(=O)[C@H](CCCNC(=N)N)NC(=O)[C@@H](Cc2ccc(Br)cc2)NC(=O)[C@H](CCCNC(=N)N)NC(=O)[C@@H](C)NC1=O` [CTX-1220, Arg-cyclo(Cys-D-Ala-Arg-D-Phe(4-Br)-Arg-D-Trp-Cys)-Arg-Phe] (Ac-RC[dA]R[dPhe(4-Br)]R[dW]CRF-NH2; disulfide 2-8 (inferred)), the figures for the Emax at human MC3R (hMC3R stable cell line) and on human MC4R (hMC4R stable cell line) were 21% and 76%, respectively. For the same compound, the “MC4R selectivity vs MC1R” value on human MC4R amounted to 1.53. Besides, the “MC4R selectivity vs MC3R” value at human MC4R was found to be 3.82.
Consider `CC(=O)N[C@@H](CCCNC(=N)N)C(=O)N[C@H]1CSSC[C@@H](C(=O)N[C@@H](CCCCN)C(N)=O)NC(=O)[C@@H](Cc2c[nH]c3ccccc23)NC(=O)[C@H](CCCNC(=N)N)NC(=O)[C@@H](Cc2ccc(Br)cc2)NC(=O)[C@H](CCCNC(=N)N)NC(=O)[C@@H](C)NC1=O` [CTX-1218, Arg-cyclo(Cys-D-Ala-Arg-D-Phe(4-Br)-Arg-D-Trp-Cys)-Lys] (Ac-RC[dA]R[dPhe(4-Br)]R[dW]CK-NH2; disulfide 2-8), for which the Emax worked out at 16% on human MC3R (hMC3R stable cell line) and 77% at human MC4R (hMC4R stable cell line). The EC50 at human MC3R (hMC3R stable cell line, unit inferred) was 4 nM; at human MC4R (hMC4R stable cell line, unit inferred), 2.2 nM. Further, the “MC4R selectivity vs MC1R” value at human MC4R worked out at 1. Moreover, on human MC4R, the “MC4R selectivity vs MC3R” value was 1.85.
Take `CC(=O)N[C@@H](CCCNC(=N)N)C(=O)N[C@H]1CSSC[C@@H](C(N)=O)NC(=O)[C@@H](Cc2c[nH]c3ccccc23)NC(=O)[C@H](CCCNC(=N)N)N(C)C(=O)[C@@H](Cc2ccc(Br)cc2)NC(=O)[C@H](CCCNC(=N)N)NC(=O)[C@@H](C)NC1=O` [CTX-1251, Arg-cyclo(Cys-D-Ala-Arg-D-Phe(4-Br)-NMe-Arg-D-Trp-Cys)] (Ac-RC[dA]R[dPhe(4-Br)][NMeR][dW]C-NH2; disulfide 2-8): the Emax on human MC3R (hMC3R stable cell line) came to 30%. Moreover, on human MC4R, the “MC4R selectivity vs MC1R” value came to 0.11 and the “MC4R selectivity vs MC3R” value is given as 3.73. Besides, at human MC4R (hMC4R stable cell line), the Emax was determined as 31%.
Take `CCCC[C@H](NC(=O)[C@H](CCCNC(=N)N)NC(C)=O)C(=O)N[C@H]1CSSC[C@@H](C(N)=O)NC(=O)[C@@H](Cc2c[nH]c3ccccc23)NC(=O)[C@H](CCCNC(=N)N)NC(=O)[C@@H](Cc2ccc(OC)cc2)NC(=O)[C@H](CCCNC(=N)N)NC1=O` [CTX-1615, Arg-Nle-cyclo(Cys-Arg-D-Tyr(4-OMe)-Arg-D-Trp-Cys)] (Ac-R[Nle]CR[dY](Me)R[dW]C-NH2; disulfide 3-8): at human MC3R (hMC3R stable cell line), the Emax came out at 55% and the EC50 stood at 27 nM. At human MC4R, the “MC4R selectivity vs MC1R” value is given as 0.26 and the “MC4R selectivity vs MC3R” value came to 2.14. On human MC4R (hMC4R stable cell line), the Emax came to 68% and the EC50 was found to be 13 nM.
For the compound `C[C@H]1NC(=O)[C@@H](NC(=O)[C@H](CCCNC(=N)N)NC(=O)COCCOCCNC(=O)COCCOCCNC(=O)CNC(=O)CCc2ccc(I)cc2)CSSC[C@@H](C(N)=O)NC(=O)[C@@H](Cc2c[nH]c3ccccc23)NC(=O)[C@H](CCCNC(=N)N)NC(=O)[C@@H](Cc2ccc(Br)cc2)NC(=O)[C@H](CCCNC(=N)N)NC1=O` [CTX-1226, Arg-cyclo(Cys-D-Ala-Arg-D-Phe(4-Br)-Arg-D-Trp-Cys)], the results for the Emax at human MC3R (hMC3R stable cell line) and at human MC4R (hMC4R stable cell line) were 29% and 71%, respectively.
As for `CC(=O)N[C@@H](CCCNC(=N)N)C(=O)N[C@H]1CSSC[C@@H](C(N)=O)NC(=O)[C@H](Cc2c[nH]c3ccccc23)NC(=O)[C@H](CCCNC(=N)N)NC(=O)[C@@H](Cc2ccc(Br)cc2)NC(=O)[C@@H]2CCCN2C(=O)[C@@H](C)NC1=O` [CTX-2204, Arg-cyclo(Cys-D-Ala-Pro-D-Phe(4-Br)-Arg-Trp-Cys)] (Ac-RC[dA]P[dPhe(4-Br)]RWC-NH2; disulfide 2-8 (inferred)), at human MC3R (hMC3R stable cell line), the Emax was 0.2% and the EC50 amounted to 11 nM. The “MC4R selectivity vs MC3R” value on human MC4R is given as 0.19. Moreover, the Emax at human MC4R (hMC4R stable cell line) stood at 13%.
As for `CCCC[C@H](NC(C)=O)C(=O)N[C@H]1CSSC[C@@H](C(=O)N[C@@H](CCCNC(=N)N)C(=O)N[C@@H](Cc2ccccc2)C(=O)NCC(N)=O)NC(=O)[C@@H](Cc2c[nH]c3ccccc23)NC(=O)[C@H](CCCNC(=N)N)NC(=O)[C@H](Cc2ccc3ccccc3c2)NC(=O)[C@H](Cc2c[nH]cn2)NC1=O` [CTX-2128, Nle-cyclo(Cys-His-Nal(2′)-Arg-D-Trp-Cys)-Arg-Phe-Gly] (Ac-[Nle]CH[2Nal]R[dW]CRFG-NH2; disulfide 2-7 (inferred)), the Emax worked out at 99% at human MC3R (% maximal activation) and 87% at human MC4R (% maximal activation). Moreover, the “MC4R selectivity vs MC3R” value on human MC3R (MC4R versus MC3R) is 0.01.
Take `CC(=O)N[C@@H](CCCNC(=N)N)C(=O)N[C@H]1CSSC[C@@H](C(N)=O)NC(=O)[C@@H](C)NC(=O)[C@H](CCCNC(=N)N)NC(=O)[C@@H](Cc2ccc(Br)cc2)NC(=O)[C@H](CCCNC(=N)N)NC(=O)[C@@H](C)NC1=O` [CTX-1260, Arg-cyclo(Cys-D-Ala-Arg-D-Phe(4-Br)-Arg-D-Ala-Cys)] (Ac-RC[dA]R[dPhe(4-Br)]R[dA]C-NH2; disulfide 2-8): the values for the Emax on human MC3R (hMC3R stable cell line) and at human MC4R (hMC4R stable cell line) were 13% and 38%, respectively. Also, at human MC4R, the “MC4R selectivity vs MC1R” value is given as 0.01. Besides, the “MC4R selectivity vs MC3R” value at human MC4R was 0.05.
For `CC(=O)N[C@@H](CCCNC(=N)N)C(=O)N[C@H]1CSSC[C@@H](C(N)=O)NC(=O)[C@@H](Cc2c[nH]c3ccccc23)NC(=O)[C@H](CCCNC(=N)N)NC(=O)[C@@H](Cc2ccc(Br)cc2)NC(=O)[C@@H](CCCNC(=N)N)NC(=O)[C@@H](C)NC1=O` [CTX-1250, Arg-cyclo(Cys-D-Ala-D-Arg-D-Phe(4-Br)-Arg-D-Trp-Cys)] (Ac-RC[dA][dR][dPhe(4-Br)]R[dW]C-NH2; disulfide 2-8 (inferred)), on human MC3R (hMC3R stable cell line), the Emax is 10%. Further, on human MC4R, the “MC4R selectivity vs MC1R” value worked out at 1.06 and the “MC4R selectivity vs MC3R” value amounted to 11. Further, the Emax on human MC4R (hMC4R stable cell line) stood at 8.7%.
The matching figures for `CC(=O)N[C@@H](CCCNC(=N)N)C(=O)N[C@H]1CSSC[C@@H](C(=O)N[C@@H](CCCNC(=N)N)C(=O)N[C@H](Cc2ccccc2)C(N)=O)NC(=O)[C@@H](Cc2c[nH]c3ccccc23)NC(=O)[C@H](CCCNC(=N)N)NC(=O)[C@@H](Cc2ccc(Br)cc2)NC(=O)[C@H](CCCNC(=N)N)NC(=O)[C@@H](C)NC1=O` [CTX-1222, Arg-cyclo(Cys-D-Ala-Arg-D-Phe(4-Br)-Arg-D-Trp-Cys)-Arg-D-Phe] (Ac-RC[dA]R[dPhe(4-Br)]R[dW]CR[dF]-NH2; disulfide 2-8 (inferred)): 38%, 0.1, 0.33 and 79%.
For `CC(=O)N[C@@H](CCCNC(=N)N)C(=O)N[C@H]1CSSC[C@@H](C(=O)N[C@@H](CCCNC(=N)N)C(=O)N[C@@H](Cc2ccccc2)C(=O)NCC(=O)O)NC(=O)[C@@H](Cc2c[nH]c3ccccc23)NC(=O)[C@H](CCCNC(=N)N)NC(=O)[C@@H](Cc2ccc(Br)cc2)NC(=O)[C@H](CCCNC(=N)N)NC(=O)[C@@H](C)NC1=O` [CTX-1219] (Ac-RC[dA]R[dPhe(4-Br)]R[dW]CRFG-OH; disulfide 2-8 (inferred)), on human MC3R (hMC3R stable cell line), the Emax was 20% and the EC50 is 4.5 nM. Further, on human MC4R, the “MC4R selectivity vs MC1R” value is 1 and the “MC4R selectivity vs MC3R” value turned out to be 1.99. Also, on human MC4R (hMC4R stable cell line), the Emax is 76% and the half-maximal effective concentration (EC50) was determined as 2.3 nM.

A word on the EC50: it is the concentration giving half of the maximal effect.
